Measurements published in patent US20220356174A1, “PYRIDIN-2-ONE COMPOUNDS USEFUL AS SMARCA2 ANTAGONISTS” (Epizyme, Inc., priority 2018, published 2022).

Experiments:
[1] = target: T1, FL-SMARCA2 (full-length human SMARCA2 isoform 1) (Homo sapiens, UniProt P51531); experiment: SMARCA2 ATPase activity assay (ADP-Glo, chicken mononucleosome substrate); assay type: biochemical; details: ATPase assay, enzyme 5 nM, ATP 250 uM, chicken mononucleosome 10 nM, 30 min preincubation
T1 construct: FLAG tag (YKDDDDK) (C); made in house; host or cells: Sf21 insect cells (baculovirus, pFastBacI)
T1 sequence (P51531 with tags, fused parts or gaps): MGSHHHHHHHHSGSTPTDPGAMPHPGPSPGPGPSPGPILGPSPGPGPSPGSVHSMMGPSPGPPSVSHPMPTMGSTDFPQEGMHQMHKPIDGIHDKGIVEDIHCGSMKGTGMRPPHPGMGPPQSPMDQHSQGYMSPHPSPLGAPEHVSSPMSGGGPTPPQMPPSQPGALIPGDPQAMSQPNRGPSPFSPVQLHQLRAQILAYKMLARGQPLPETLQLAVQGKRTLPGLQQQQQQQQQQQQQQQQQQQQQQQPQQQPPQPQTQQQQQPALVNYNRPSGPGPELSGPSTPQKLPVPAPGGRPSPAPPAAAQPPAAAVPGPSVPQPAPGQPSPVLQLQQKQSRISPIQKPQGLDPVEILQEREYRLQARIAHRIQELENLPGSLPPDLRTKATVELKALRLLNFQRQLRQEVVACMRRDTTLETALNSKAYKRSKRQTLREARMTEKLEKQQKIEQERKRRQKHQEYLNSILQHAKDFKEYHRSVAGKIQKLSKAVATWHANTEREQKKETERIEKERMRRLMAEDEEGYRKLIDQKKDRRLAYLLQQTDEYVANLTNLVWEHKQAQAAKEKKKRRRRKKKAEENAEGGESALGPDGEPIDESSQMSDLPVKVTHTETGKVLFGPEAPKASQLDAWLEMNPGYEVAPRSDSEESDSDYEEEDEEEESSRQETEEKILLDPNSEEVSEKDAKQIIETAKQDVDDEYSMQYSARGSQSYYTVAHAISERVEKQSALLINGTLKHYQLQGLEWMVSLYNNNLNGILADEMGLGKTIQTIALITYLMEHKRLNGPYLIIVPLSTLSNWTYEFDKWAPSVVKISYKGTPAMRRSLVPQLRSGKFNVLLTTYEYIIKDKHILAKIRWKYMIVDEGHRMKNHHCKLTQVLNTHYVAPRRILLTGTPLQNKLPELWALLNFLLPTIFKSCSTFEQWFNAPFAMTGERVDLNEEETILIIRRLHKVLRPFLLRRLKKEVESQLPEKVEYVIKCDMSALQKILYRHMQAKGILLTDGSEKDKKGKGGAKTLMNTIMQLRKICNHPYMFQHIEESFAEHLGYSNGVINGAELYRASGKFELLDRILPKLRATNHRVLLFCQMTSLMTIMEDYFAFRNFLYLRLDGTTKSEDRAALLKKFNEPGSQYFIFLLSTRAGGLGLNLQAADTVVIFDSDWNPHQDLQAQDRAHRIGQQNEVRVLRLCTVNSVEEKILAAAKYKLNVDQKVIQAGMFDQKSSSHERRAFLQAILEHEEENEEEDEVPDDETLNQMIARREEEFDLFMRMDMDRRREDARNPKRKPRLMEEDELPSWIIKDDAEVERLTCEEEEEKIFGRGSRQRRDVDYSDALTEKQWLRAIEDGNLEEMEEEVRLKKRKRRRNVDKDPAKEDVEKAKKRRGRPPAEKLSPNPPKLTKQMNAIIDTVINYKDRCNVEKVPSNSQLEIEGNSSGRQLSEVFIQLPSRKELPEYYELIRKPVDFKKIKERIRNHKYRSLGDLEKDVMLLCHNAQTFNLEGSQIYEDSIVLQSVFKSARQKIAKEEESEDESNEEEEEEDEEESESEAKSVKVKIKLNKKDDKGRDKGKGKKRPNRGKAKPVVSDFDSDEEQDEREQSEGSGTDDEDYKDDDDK

[2] = test system: various lung cancer cell lines; experiment: Long term proliferation (LTP) assay in various cancer cell lines; assay type: cell-based
Experimental: The following cell lines were evaluated in an adherent cell line proliferation assay described herein: A549, HCC15, COV434, NCIH460, NCIH358, NCIH358-SMARCA2, NCIH358-SMARCA, NCIH1703, NCIH838, NCIH322, NCIH2122, NCIH2023, NCIH1355, NCIH1693, NCIH441, NCIH2030, NCIH1573, NCIH1373, NCIH1650, and NCIH1693. Plating densities for each cell line were determined based on growth curves (measured by ATP viability) and density over a 7 day timecourse. On the day before compound treatment, cells were plated in either 96-well plates in triplicate (for the day 0-7 timecourse) or 6-well plates (for replating on day 7 for the remainder of the timecourse). On Day 0, cells were either untreated, DMSO-treated, or treated with increasing concentrations of Compound 139 up to 10 μM. Plates were read on Day 0, Day 4, and Day 7 using a luminescent cell viability assay, with compound/media being replenished on Day 4. On Day 7, the 6-well plates were trypsinized, centrifuged, and resuspended in fresh media for counting by Vi-Cell. Cells from each treatment were replated at the original density in 96-well plates in triplicate. Cells were allowed to adhere to the plate overnight, and cells were treated as on Day 0. On Day 7, 11 and 14, plates were read using a luminescent cell viability assay, with compound/media being replenished on Day 11. Averages of triplicates were used to plot proliferation over the timecourse, and calculate IC50 values.
The following cell lines were evaluated in an adherent cell line proliferation assay described herein: NCIH522, CORL23, NCIH1693, NCIH1838, HCC1588, NCIH1435, NCIH2085, HCC827, NCIH1792, NCIH596, NCIH1568, NCIH1793, NCIH2126, CORL105, NCIH1573, NCIH1693, NCIH1395, HCC44, NCIH2126, NCIH520, NCIH1373, NCIH2172, NCIH23, HCT116, […], NCIH2347, NCIH2110, NCIH647, NCIH1437, AGS, KMS11, BT549, HUPT4, NCIH1048, TE10, and TE14. Cell densities were determined by growth curve as per protocol 1. For the proliferation assay, on Day 0, cells were either untreated, DMSO-treated, or treated with increasing concentrations of Compound 139 up to 10 μM. Plates were read on Day 0, Day 4, and Day 7 using luminescent cell viability assay. On Day 7, the 6-well plates were trypsinized, centrifuged, and resuspended in fresh media for counting by Vi-Cell. Cells from each treatment were replated at the original density in 96-well plates in triplicate. Cells were treated with compound as on Day 0. On Day 7, 11 and 14, plates were read using a luminescent cell viability assay. Averages of triplicates were used to plot proliferation over the timecourse, and calculate IC50 values.

[3] = Homo sapiens, A549, A549, SMARCA4 protein Absent, Lung NSCLC adenocarcinoma
[4] = Homo sapiens, COR-L105, CORL105, SMARCA4 protein Present, Lung NSCLC adenocarcinoma
[5] = Homo sapiens, HCT-116, HCT116, SMARCA4 protein Present, Colon Cancer
[6] = Homo sapiens, NCI-H358, NCIH358, SMARCA4 protein Present, Lung NSCLC bronchioloalveolar adenocarcinoma
[7] = Homo sapiens, NCI-H358, NCIH358 SMARCA4, SMARCA4 protein Absent, Lung NSCLC bronchioloalveolar adenocarcinoma
[8] = Homo sapiens, NCI-H460, NCIH460, SMARCA4 protein Present, Lung NSCLC large cell carcinoma
[9] = Homo sapiens, NCI-H522, NCIH522, SMARCA4 protein Absent, Lung NSCLC adenocarcinoma
[10] = Homo sapiens, NCI-H1299, NCIH1299, Lung NSCLC non small cell carcinoma
[11] = NCI-H1568, NCIH1568, SMARCA4 protein Absent, Lung NSCLC adenocarcinoma
[12] = NCIH2085, SMARCA4 protein Present, Lung NSCLC adenocarcinoma
[13] = RERFLCAI, SMARCA4 protein Absent, Lung NSCLC squamous cell carcinoma
[14] = HCC15, HCC15, SMARCA4 protein Absent, Lung NSCLC squamous cell carcinoma
[15] = Homo sapiens, COR-L23, CORL23, SMARCA4 protein Present, Lung NSCLC large cell carcinoma
[16] = Homo sapiens, Calu-6, CALU6, SMARCA4 protein Present, Lung NSCLC undifferentiated carcinoma
[17] = Homo sapiens, HCC44, HCC44, SMARCA4 protein Present, Lung NSCLC adenocarcinoma
[18] = Homo sapiens, NCI-H23, NCIH23, SMARCA4 protein Absent, Lung NSCLC non small cell carcinoma
[19] = Homo sapiens, NCI-H358, NCIH358 SMARCA2, SMARCA4 protein Present, Lung NSCLC bronchioloalveolar adenocarcinoma
[20] = Homo sapiens, NCI-H441, NCIH441, SMARCA4 protein Present, Lung NSCLC adenocarcinoma
[21] = Homo sapiens, NCI-H596, NCIH596, Lung NSCLC mixed adenosquamous carcinoma
[22] = Homo sapiens, NCI-H810, NCIH810, SMARCA4 protein Present, Lung NSCLC large cell carcinoma
[23] = Homo sapiens, NCI-H1437, NCIH1437, SMARCA4 protein Present, Lung NSCLC adenocarcinoma
[24] = Homo sapiens, NCI-H1563, NCIH1563, SMARCA4 protein Present, Lung NSCLC adenocarcinoma
[25] = Homo sapiens, NCI-H1573, NCIH1573, SMARCA4 protein Absent, Lung NSCLC adenocarcinoma
[26] = Homo sapiens, NCI-H1693, NCIH1693, SMARCA4 protein Absent, Lung NSCLC adenocarcinoma
[27] = Homo sapiens, NCI-H1975, NCIH1975, SMARCA4 protein Present, Lung NSCLC non small cell carcinoma
[28] = Homo sapiens, NCI-H2030, NCIH2030, SMARCA4 protein Absent, Lung NSCLC non small cell carcinoma
[29] = Homo sapiens, NCI-H2122, NCIH2122, SMARCA4 protein Present, Lung NSCLC adenocarcinoma
[30] = Homo sapiens, PANC-1, PANC1, Pancreatic Cancer ductal carcinoma
[31] = Homo sapiens, SW900, SW900, SMARCA4 protein Present, Lung NSCLC squamous cell carcinoma
[32] = Hs766T, Pancreatic Cancer ductal carcinoma

N#Cc1cc(C(=O)Nc2cc(F)c(=O)n(CC(F)F)c2)sc1C(F)(F)F [Compound 82c, 4-cyano-N-[1-(2,2-difluoroethyl)-5-fluoro-6-oxopyridin-3-yl]-5-(trifluoromethyl)thiophene-2-carboxamide]
IC50 ([1]; Table 3c.1): 9.88 nM | IC50 [2, 3]: 259 nM | IC50 [2, 4]: 170 nM | IC50 [2, 5]: 142 nM | IC50 [2, 6]: 1700 nM | IC50 [2, 7]: 383 nM | IC50 [2, 8]: 10000 nM | IC50 [2, 9]: 9700 nM | IC50 [2, 10]: 1700 nM | IC50 ([2]; Homo sapiens, NCI-H1581, NCIH1581, SMARCA4 protein Absent, Lung NSCLC large cell carcinoma): 10000 nM | IC50 [2, 11]: 10000 nM | IC50 [2, 12]: 10000 nM | IC50 [2, 13]: 26 nM

O=C(Nc1cc(F)c(=O)n(CC(F)F)c1)c1cc(Cl)c(C(F)(F)F)s1 [Compound 298, 4-Chloro-N-(1-(2,2-difluoroethyl)-5-fluoro-6-oxo-1,6-dihydropyridin-3-yl)-5-(trifluoromethyl)thiophene-2-carboxamide]
IC50 ([1]; Table 3.1): 24.1 nM | IC50 ([2]; COV644, Ovarian Cancer): 5600 nM | IC50 [2, 14]: 569 nM | IC50 [2, 3]: 142 nM | IC50 [2, 15]: 1400 nM | IC50 [2, 4]: 715 nM | IC50 [2, 16]: 1400 nM | IC50 ([2]; Homo sapiens, DLD-1, DLD1, SMARCA4 protein Present, Colon Cancer adenocarcinoma): 1400 nM | IC50 [2, 17]: 3300 nM | IC50 [2, 5]: 836 nM | IC50 ([2]; Homo sapiens, HT-1376, HT1376, Bladder Cancer transitional cell carcinoma): 385 nM | IC50 ([2]; Homo sapiens, MIA PaCa-2, MIAPACA2, Pancreatic Cancer ductal carcinoma): 871 nM | IC50 [2, 18]: 891 nM | IC50 [2, 6]: 10000 nM | IC50 [2, 19]: 5100 nM | IC50 [2, 7]: 312 nM | IC50 [2, 20]: 5000 nM | IC50 [2, 8]: 10000 nM | IC50 [2, 9]: 10000 nM | IC50 [2, 21]: 10000 nM | IC50 [2, 22]: 946 nM | IC50 [2, 10]: 548 nM | IC50 [2, 23]: 1400 nM | IC50 [2, 24]: 1100 nM | IC50 [2, 25]: 701 nM | IC50 [2, 26]: 202 nM | IC50 [2, 27]: 10000 nM | IC50 [2, 28]: 1100 nM | IC50 [2, 29]: 3900 nM | IC50 [2, 30]: 223 nM | IC50 [2, 31]: 10000 nM | IC50 [2, 32]: 10000 nM | IC50 [2, 11]: 509 nM | IC50 ([2]; OV7, Ovarian Cancer): 154 nM | IC50 [2, 13]: 135 nM

N#Cc1sc(C(=O)Nc2cc(F)c(=O)n(CCF)c2)cc1Cl [Compound 139]
IC50 ([1]; Table 3.1): 19.6 nM | IC50 [2, 14]: 677 nM | IC50 ([2]; HCC1588, HCC1588, SMARCA4 protein Present, Lung NSCLC squamous cell carcinoma): 906 nM | IC50 [2, 3]: 316 nM | IC50 [2, 15]: 1700 nM | IC50 [2, 4]: 95 nM | IC50 [2, 16]: 1210 nM | IC50 [2, 17]: 1270 nM | IC50 ([2]; Homo sapiens, HCC827, HCC827, SMARCA4 protein Present, Lung NSCLC adenocarcinoma (bronchioalveolar features)): 10000 nM | IC50 [2, 5]: 169 nM | IC50 [2, 18]: 1100 nM | IC50 [2, 6]: 10000 nM | IC50 [2, 19]: 10000 nM | IC50 [2, 7]: 347 nM | IC50 [2, 20]: 5200 nM | IC50 [2, 8]: 10000 nM | IC50 [2, 9]: 10000 nM | IC50 [2, 21]: 8800 nM | IC50 [2, 22]: 174 nM | IC50 ([2]; Homo sapiens, NCI-H838, NCIH838, SMARCA4 protein Present, Lung NSCLC adenocarcinoma): 10000 nM | IC50 [2, 10]: 857 nM | IC50 ([2]; Homo sapiens, NCI-H1395, NCIH1395, SMARCA4 protein Present, Lung NSCLC adenocarcinoma): 10000 nM | IC50 [2, 23]: 1500 nM | IC50 [2, 24]: 2300 nM | IC50 [2, 25]: 504 nM | IC50 ([2]; Homo sapiens, NCI-H1650, NCIH1650, SMARCA4 protein Present, Lung NSCLC bronchioalveolar carcinoma): 5000 nM | IC50 [2, 26]: 101 nM | IC50 ([2]; Homo sapiens, NCI-H1792, NCIH1792, SMARCA4 protein Present, Lung NSCLC adenocarcinoma): 10000 nM | IC50 ([2]; Homo sapiens, NCI-H1793, NCIH1793, SMARCA4 protein Present, Lung NSCLC adenocarcinoma): 890 nM | IC50 ([2]; Homo sapiens, NCI-H1838, NCIH1838, SMARCA4 protein Present, Lung NSCLC non-small cell lung cancer): 587 nM | IC50 [2, 27]: 10000 nM | IC50 [2, 28]: 1140 nM | IC50 [2, 29]: 2800 nM | IC50 ([2]; Homo sapiens, NCI-H2126, NCIH2126, SMARCA4 protein Present, Lung NSCLC adenocarcinoma): 5500 nM | IC50 ([2]; Homo sapiens, NCI-H2342, NCIH2342, SMARCA4 protein Present, Lung NSCLC non-small cell lung cancer): 2500 nM | IC50 [2, 30]: 10000 nM | IC50 [2, 31]: 10000 nM | IC50 [2, 32]: 1000 nM | IC50 ([2]; NCI-H1435, NCIH1435, SMARCA4 protein Present, Lung NSCLC adenocarcinoma): 443 nM | IC50 [2, 11]: 395 nM | IC50 [2, 12]: 314 nM | IC50 [2, 13]: 61 nM | sensitivity to inhibition of SMARCA2 (IC50): cell lines with loss or absence of SMARCA4 versus cell lines with SMARCA4 protein present ([2]; lung cancer cell lines of Table 5, FIG. 1): more sensitive
